Reference: patent publication US20160009697A1, “PYRIDINE DERIVATIVES AS 5-HT6 RECEPTOR ANTAGONISTS” (Selvita S.A., priority 2013, published 2016)

Columns and labels:
[1] = tested on: human alpha1 receptor; experiment: Alpha1 functional assay (calcium response, LNCaP cells); assay type: cell-based; conditions: agonist noradrenaline, 30 min preincubation, Fluo-4NW calcium, read-out: Alpha1 antagonist Kb
Text: The alpha-1 (α1) adrenergic receptor is coupled to the Gq heterotrimeric G-protein that activates phospholipase C and the phosphatidylinositol (PIP2) signaling pathway. The pathway starts with stimulation of the receptor and further activation of phospholipase C (PLC). Inositol-1,4,5-triphosphate (IP3), which is one of the products of PLC activity, binds to IP3 receptor in smooth ER. Opening of IP3R, which acts as a calcium ion channel, causes an increase in Ca^2+ concentration in cytosol, which can be quantitatively measured using calcium-sensitive fluorescent dyes.
Alpha1 antagonism was measured in LNCaP (Human lymph node carcinoma of the prostate) cells expressing human alpha1 receptor. Cells were dispensed into 96-well assay plates at a density of 30 000 cells per well and, following over night recovery, assayed for calcium response. Tests were performed using Fluo-4NW Calcium Assay Kit (Molecular Probes #F36206) and standard testing procedure for this kit. Cells were preincubated with test compound for 30 min, then endogenous agonist noradrenaline was added. Fluorescence was measured by FLEXstation 3 (Molecular Devices). The apparent dissociation constants (Kb) were calculated by means of GraphPhad Prism 5 software using the modified Cheng Prusoff equation (Kb=IC50/(1+(A/EC50A)), where A=concentration of reference agonist in the assay and EC50A=EC50 value of the reference agonist). For each IC50 determination, agonist dose response curve is run in parallel with the antagonist, on the same experimental plate. Curves maximal and minimal values should be reached in assays, and it is checked if Prism uses proper maximal and minimal values for curve fitting.

[2] = biological target: T1, human 5-HT6 (Homo sapiens, UniProt P50406); experiment: 5-HT6 functional assay (calcium response, Chem-10 host cells); assay type: cell-based; design: host or cells: Chem-10 host cells, co-expressing a recombinant promiscuous G protein; conditions: agonist serotonin, 30 min preincubation, Fluo-4NW calcium, read-out: 5-HT6 antagonist Kb
T1 sequence (P50406 whole entry): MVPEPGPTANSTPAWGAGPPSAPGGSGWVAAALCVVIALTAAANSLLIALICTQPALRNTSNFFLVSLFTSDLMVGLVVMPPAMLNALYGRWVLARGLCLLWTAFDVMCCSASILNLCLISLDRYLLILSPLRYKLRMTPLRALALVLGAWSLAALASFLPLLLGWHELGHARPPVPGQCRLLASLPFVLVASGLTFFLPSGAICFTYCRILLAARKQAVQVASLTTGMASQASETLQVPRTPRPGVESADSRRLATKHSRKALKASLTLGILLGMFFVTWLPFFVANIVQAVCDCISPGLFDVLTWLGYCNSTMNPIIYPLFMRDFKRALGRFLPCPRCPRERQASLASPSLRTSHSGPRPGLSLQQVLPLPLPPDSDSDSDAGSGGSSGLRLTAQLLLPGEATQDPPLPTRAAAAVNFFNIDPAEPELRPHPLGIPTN
Text: The serotonin receptor 5-HT6 is a Gs coupled receptor. In the brain it responds to serotonin and other agonists by increasing adenyl cyclase mediated production of cyclic AMP. 5-HT6 can be also functionally tested using different coupling types. Millipore's cloned human 5-HT6-expressing cell line is made in the Chem-10 host, which supports high levels of recombinant 5-HT6 expression on the cell surface and contains optimized levels of a recombinant promiscuous G protein to couple the receptor to the calcium signaling pathway. Cells were thawed, resuspended in media, dispensed into 96-well assay plates at a density of 27500 cells per well and, following over night recovery, assayed for calcium response. Tests were performed using Fluo-4NW Calcium Assay Kit (Molecular Probes #F36206) and standard testing procedure for this kit. Cells were preincubated with test compound for 30 min, then endogenous agonists serotonin was added. Fluorescence was measured by FLEXstation 3 (Molecular Devices). The apparent dissociation constants (Kb) were calculated by means of GraphPhad Prism 5 software using the modified Cheng Prusoff equation (Kb=IC50/(1+(A/EC50A)), where A=concentration of reference agonist in the assay and EC50A=EC50 value of the reference agonist). For each IC50 determination, agonist dose response curve is run in parallel with the antagonist, on the same experimental plate. Curves maximal and minimal values should be reached in assays and it is checked if Prism uses proper maximal and minimal values for curve fitting.

[3] = biological target: T2, human H1 receptor (Homo sapiens, UniProt P35367); experiment: H1 functional assay (calcium response, CHO cells); assay type: cell-based; conditions: agonist histamine, 30 min preincubation, Fluo-4NW calcium, read-out: H1 antagonist Kb
T2 construct: expressed in transfected cells; host or cells: CHO cells
T2 sequence (P35367 whole entry): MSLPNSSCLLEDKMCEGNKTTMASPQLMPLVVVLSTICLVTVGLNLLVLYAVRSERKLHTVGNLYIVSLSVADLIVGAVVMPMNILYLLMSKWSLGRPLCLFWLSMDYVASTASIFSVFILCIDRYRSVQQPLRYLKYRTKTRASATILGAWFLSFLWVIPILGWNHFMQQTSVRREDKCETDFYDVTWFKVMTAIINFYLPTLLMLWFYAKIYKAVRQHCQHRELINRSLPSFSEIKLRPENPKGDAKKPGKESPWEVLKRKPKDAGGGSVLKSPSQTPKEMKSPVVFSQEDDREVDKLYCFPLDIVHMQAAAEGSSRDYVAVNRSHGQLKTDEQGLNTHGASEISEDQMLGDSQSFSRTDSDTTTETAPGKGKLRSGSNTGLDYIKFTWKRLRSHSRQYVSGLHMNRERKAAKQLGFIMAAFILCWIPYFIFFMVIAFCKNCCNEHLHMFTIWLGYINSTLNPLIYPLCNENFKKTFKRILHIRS
Text: The histamine receptor H1 is linked to an intracellular G-protein (Gq) that activates phospholipase C and the phosphatidylinositol (PIP2) signaling pathway. The pathway starts with stimulation of the receptor and further activation of phospholipase C (PLC). Inositol-1,4,5-triphosphate (IP3), which is one of the products of PLC activity, binds to IP3 receptor in smooth ER. Opening of IP3R, which acts as a calcium ion channel, causes an increase in Ca^2+ concentration in the cytosol, which can be quantitatively measured using calcium-sensitive fluorescent dyes.
H1 antagonism was measured in CHO cells (Chinese Hamster Ovary cell-line) transfected with pcDNA for human H1 receptor. Cells were dispensed into 96-well assay plates at a density of 25 000-30 000 cells per well and, following over night recovery, assayed for calcium response. Tests were performed using Fluo-4NW Calcium Assay Kit (Molecular Probes #F36206) and standard testing procedure for this kit. Cells were preincubated with test compound for 30 min, then endogenous agonist histamine was added. Fluorescence was measured by FLEXstation 3 (Molecular Devices). The apparent dissociation constants (Kb) were calculated by means of GraphPhad Prism 5 software using the modified Cheng Prusoff equation (Kb=IC50/(1+(A/EC50A)), where A=concentration of reference agonist in the assay and EC50A=EC50 value of the reference agonist). For each IC50 determination, agonist dose response curve is run in parallel with the antagonist, on the same experimental plate. Curves maximal and minimal values should be reached in assays and it is checked if Prism uses proper maximal and minimal values for curve fitting.

[4] = biological target: T3, D2 receptor (Homo sapiens, UniProt P14416); experiment: Dopamine receptor D2 binding affinity, competitive radioligand binding with [3H]methyl-spiperone; conditions: membranes of recombinant cells, [3H]methyl-spiperone 0.2 nM, 60 min at 37° C.
T3 construct: expressed in transfected cells; membrane homogenates
T3 sequence (P14416 whole entry): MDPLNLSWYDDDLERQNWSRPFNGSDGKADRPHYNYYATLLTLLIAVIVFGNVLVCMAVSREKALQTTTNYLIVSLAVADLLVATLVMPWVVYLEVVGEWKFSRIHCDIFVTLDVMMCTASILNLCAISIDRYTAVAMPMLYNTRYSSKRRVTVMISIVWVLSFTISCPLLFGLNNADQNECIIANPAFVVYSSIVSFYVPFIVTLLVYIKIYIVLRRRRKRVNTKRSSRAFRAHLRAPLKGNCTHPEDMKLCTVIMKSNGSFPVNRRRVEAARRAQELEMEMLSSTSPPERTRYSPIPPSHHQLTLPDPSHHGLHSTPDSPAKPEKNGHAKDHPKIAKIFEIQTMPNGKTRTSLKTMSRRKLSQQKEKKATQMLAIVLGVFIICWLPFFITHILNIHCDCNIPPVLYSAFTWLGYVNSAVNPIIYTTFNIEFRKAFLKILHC
Description: Dopamine receptor D2 binding affinity of compounds of formula I was also evaluated. […] After a 60 minute incubation at 37° C., the incubation was terminated by vacuum filtration. The filters were washed with buffer and the filters were counted for radioactivity using liquid scintillation spectrometry. Concentrations ranging from 10^−12 M to 10^−5 M of the test compound were evaluated. […] Binding in the presence of varying concentrations of test compound is expressed as a percentage of specific binding in the absence of test compound. The results are plotted as log % bound versus log concentration of test compound. […] A linear regression line of data points is plotted, from which the IC50 value is determined and the Ki value is determined based upon the following equation: […]

[5] = biological target: T4, short form of human D2 receptor (Homo sapiens, UniProt P14416); experiment: D2 functional assay (cAMP-Glo, CHO cells); assay type: cell-based; conditions: forskolin 10 μM, read-out: D2 antagonist Kb
T4 construct: expressed in transfected cells; host or cells: CHO cells
T4 sequence (P14416 1-414 isoform P14416-2): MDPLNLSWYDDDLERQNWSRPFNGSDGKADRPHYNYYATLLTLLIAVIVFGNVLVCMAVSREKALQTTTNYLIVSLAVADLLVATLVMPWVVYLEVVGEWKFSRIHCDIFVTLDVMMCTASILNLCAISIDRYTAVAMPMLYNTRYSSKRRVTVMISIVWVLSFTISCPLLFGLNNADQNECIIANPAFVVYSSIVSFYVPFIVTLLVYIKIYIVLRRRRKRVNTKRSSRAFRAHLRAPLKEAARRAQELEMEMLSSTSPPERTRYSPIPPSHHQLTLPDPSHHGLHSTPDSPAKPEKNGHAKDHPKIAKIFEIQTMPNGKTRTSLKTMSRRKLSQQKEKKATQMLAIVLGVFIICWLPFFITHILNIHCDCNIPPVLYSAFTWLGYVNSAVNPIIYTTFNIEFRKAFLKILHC
Description: Dopamine D2 receptor inhibits adenylyl cyclase activity. CHO cells (Chinese Hamster Ovary cell-line) transfected with short form of human D2 receptor were used for D2 functional testing. Cells were seeded at a density of 10 000 cells/well in white-walled 96-well plates one day before the experiment. Forskolin at 10 μM was used to increase the intracellular level of cAMP. Compounds were tested according to the procedure from cAMP-Glo™ kit manufacturer's instruction.

[6] = biological target: T1, human 5-HT6; experiment: 5-HT6 binding affinity, competitive radioligand binding with [3H]-LSD

Structure (SMILES) | Kb [2] [nM] | Kb [3] [nM] | Ki [4] [nM] | Kb [5] [nM] | Ki [6] [nM] | Kb [1] [nM]
COc1ccc(-c2cc(C(C)C3CCOCC3)nc(N3CCN(C)CC3)c2)cc1 (stereo not drawn) [Example 7, 1-[4-(4-Methoxyphenyl)-6-[1-(oxan-4-yl)ethyl]pyridin-2-yl]-4-methyl-piperazine] | 0.01 | > 2000 | > 10000 | 340 | 12.2 | 29.3
COc1ccc(-c2cc(CC3CCOCC3)nc(N3CCC(N)CC3)c2)cc1 [Example 6, 1-[4-(4-Methoxyphenyl)-6-(oxan-4-ylmethyl)pyridin-2-yl]piperidin-4-amine] | > 1000 | > 1000 | > 10000 | > 3500 | 38.8 | > 2000
CN1CCN(c2cc(-c3cscn3)cc(CC3CCOCC3)n2)CC1 [Example 4, 1-Methyl-4-[6-(oxan-4-ylmethyl)-4-(1,3-thiazol-4-yl)pyridin-2-yl]-piperazine] | 1.97 | > 5000 | > 10000 | 781 | 14.3 | 203

Continued, in another order:

Kb [2] [nM] | Kb [3] [nM] | Ki [4] [nM] | Kb [5] [nM] | Ki [6] [nM] | Structure (SMILES) | Kb [1] [nM]
4.7 | 19.4 | > 10000 | > 3500 | 36.1 | COc1ccc(-c2cc(CC3CCOCC3)nc(N3CCNC(C)(C)C3)c2)cc1 [Example 8, 1-[4-(4-Methoxyphenyl)-6-(oxan-4-ylmethyl)pyridin-2-yl]-3,3-dimethylpiperazine] | 1600
81.8 | > 5000 | 1180 | > 2000 | 22.2 | CN1CCN(c2cc(-c3ccccn3)cc(CC3CCOCC3)n2)CC1 [Example 3, 1-Methyl-4-[6-(oxan-4-ylmethyl)-4-(pyridin-2-yl)pyridin-2-yl]piperazine] | 83.8
5.06 | 1230 | 1250 | > 2000 | 22.8 | COc1ccc(-c2cc(CC3CCOCC3)nc(N3CCN(C)CC3)c2)c(F)c1 [Example 5, 1-[4-(2-Fluoro-4-methoxyphenyl)-6-(oxan-4-ylmethyl)pyridin-2-yl]-4-methylpiperazine] | 171
204 | 462 | 4100 | > 3500 | 39.6 | CN1CCN(c2cc(-c3ccc4ccccc4n3)cc(CC3CCOCC3)n2)CC1 [Example 2, 2-[2-(4-Methylpiperazin-1-yl)-6-(oxan-4-ylmethyl)pyridin-4-yl]quinoline] | > 2000
